Assay: Insulinotropin infusion, plasma glucose levels in patients with NIDDM
Assay type: in vivo
Settings: raising peptide around meal time alone, for periods of up to one hour

His-Asp-Glu-Phe-Glu-Arg-His-Ala-Glu-Gly-Thr-Phe-Thr-Ser-Asp-Val-Ser-Ser-Tyr-Leu-Glu-Gly-Gln-Ala-Ala-Lys-Glu-Phe-Ile-Ala-Trp-Leu-Val-Lys-Gly-Arg-Gly [GLP-1]
glycemic control: will not adequately control the glucose levels

Reference: patent US20030050237A1, “Prolonged delivery of peptides” (Scios Inc., priority 1993, published 2003)
